# Results from patent publication US10988459B2 (priority 2015, dated 2021).
# Biological target: human RIP1 kinase domain (2-375) (Homo sapiens (Human), UniProt Q13546)
# Assay: biochemical
# Format: biochemical
# Conditions: human RIP1 kinase domain (2-375), Transcreener ADP assay, 50 uM ATP, 2 hours incubation; read-out: RIP1 Ki
# How it was run: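 50 nM purified kinase domain from baculovirus-infected insect cells, incubated 2 h with compound in 50 mM Hepes pH 7.5, 30 mM MgCl2, 1 mM DTT, 50 uM ATP, 0.002% Brij-35, 0.5% DMSO. ADP formation read by Transcreener FP at 633 nm excitation. Ki^app fitted with the Morrison tight-binding equation.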
# human RIP1 kinase domain (2-375), sequence (Q13546 2-375): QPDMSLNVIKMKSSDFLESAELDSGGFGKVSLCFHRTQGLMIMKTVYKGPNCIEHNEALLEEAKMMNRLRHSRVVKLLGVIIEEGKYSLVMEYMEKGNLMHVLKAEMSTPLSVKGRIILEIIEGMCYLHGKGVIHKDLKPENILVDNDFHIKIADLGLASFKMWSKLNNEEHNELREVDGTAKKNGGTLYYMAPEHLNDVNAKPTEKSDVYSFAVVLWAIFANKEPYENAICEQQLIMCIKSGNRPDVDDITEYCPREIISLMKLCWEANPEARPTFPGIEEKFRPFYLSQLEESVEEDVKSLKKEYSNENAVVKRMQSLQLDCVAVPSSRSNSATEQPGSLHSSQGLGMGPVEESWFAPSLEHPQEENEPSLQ
row,SMILES,Ki
1,"Cc1cc(Cn2cnc(C(=O)NC3CCn4nc(C5CC5)cc4N(C)C3=O)n2)ccn1 (stereo not shown) [Example 242, N-(2-cyclopropyl-4-methyl-5-oxo-5,6,7,8-tetrahydro-4H-pyrazolo[1,5-a][1,3]diazepin-6-yl)-1-((2-methylpyridin-4-yl)methyl)-1H-1,2,4-triazole-3-carboxamide]",5700 nM
2,"CC[C@]1(C)OCc2cnc(C(=O)N[C@H]3COc4cc(F)cc(F)c4NC3=O)cc21 [Example 243, (S)—N—((S)-6,8-difluoro-4-oxo-2,3,4,5-tetrahydrobenzo[b][1,4]oxazepin-3-yl)-1-ethyl-1-m ethyl-1,3-dihydrofuro[3,4-c]pyridine-6-carboxamide]",270 nM
3,"CC[C@@]1(C)OCc2cnc(C(=O)N[C@H]3COc4cc(F)cc(F)c4NC3=O)cc21 [Example 244, (R)—N—((S)-6,8-difluoro-4-oxo-2,3,4,5-tetrahydrobenzo[b][1,4]oxazepin-3-yl)-1-ethyl-1-methyl-1,3-dihydrofuro[3,4-c]pyridine-6-carboxamide]",36.8 nM
4,"CC[C@@]1(C)OCc2cnc(C(=O)N[C@H]3CCn4nc(C5CC5)cc4N(C)C3=O)cc21 [Example 245, (R)—N—((S)-2-cyclopropyl-4-methyl-5-oxo-5,6,7,8-tetrahydro-4H-pyrazolo[1,5-a][1,3]diazepin-6-yl)-1-ethyl-1-methyl-1,3-dihydrofuro[3,4-c]pyridine-6-carboxamide]",782 nM
5,"Cc1cc2n(n1)CCC(NC(=O)c1ncn(CC3CCC(F)(F)CC3)n1)C(=O)N2C (stereo not shown) [Example 246, 1-((4,4-difluorocyclohexyl)methyl)-N-(2,4-dimethyl-5-oxo-5,6,7,8-tetrahydro-4H-pyrazolo[1,5-a][1,3]diazepin-6-yl)-1H-1,2,4-triazole-3-carboxamide]",695 nM
6,"Cc1cc2n(n1)CCC(NC(=O)c1ncn(CC3CCC3)n1)C(=O)N2C (stereo not shown) [Example 247, 1-(cyclobutylmethyl)-N-(2,4-dimethyl-5-oxo-5,6,7,8-tetrahydro-4H-pyrazolo[1,5-a][1,3]diazepin-6-yl)-1H-1,2,4-triazole-3-carboxamide]",221 nM
7,"Cc1cc2n(n1)CCC(NC(=O)c1ncn(CC3CC(F)(F)C3)n1)C(=O)N2C (stereo not shown) [Example 248, 1-((3,3-difluorocyclobutyl)methyl)-N-(2,4-dimethyl-5-oxo-5,6,7,8-tetrahydro-4H-pyrazolo[1,5-a][1,3]diazepin-6-yl)-1H-1,2,4-triazole-3-carboxamide]",1100 nM
8,"Cc1cc2n(n1)CCC(NC(=O)c1ncn(Cc3ccc(Cl)cc3)n1)C(=O)N2C (stereo not shown) [Example 249, 1-(4-chlorobenzyl)-N-(2,4-dimethyl-5-oxo 6,7,8-tetrahydro-4H-pyrazolo[1,5-a][1,3]diazepin-6-yl)-1H-1,2,4-triazole-3-carboxamide]",92.1 nM
9,"Cc1cc2n(n1)CCC(NC(=O)c1ncn(CCC(F)(F)F)n1)C(=O)N2C (stereo not shown) [Example 250, N-(2,4-dimethyl-5-oxo-5,6,7,8-tetrahydro-4H-pyrazolo[1,5-a][1,3]diazepin-6-yl)-1-(3,3,3-trifluoropropyl)-1H-1,2,4-triazole-3-carboxamide]",1000 nM
10,"Cc1cc2n(n1)CCC(NC(=O)c1ncn(CC3CCCC3)n1)C(=O)N2C (stereo not shown) [Example 251, 1-(cyclopentylmethyl)-N-(2,4-dimethyl-5-oxo-5,6,7,8-tetrahydro-4H-pyrazolo[1,5-a][1,3]diazepin-6-yl)-1H-1,2,4-triazole-3-carboxamide]",136 nM
11,"CC(C1CCn2nnc(C(=O)N[C@H]3COc4ccccc4N(C)C3=O)c2C1)C(F)(F)F (stereo partly drawn) [Example 252, N—((S)-5-methyl-4-oxo-2,3,4,5-tetrahydrobenzo[b][1,4]oxazepin-3-yl)-5-(1,1,1-trifluoropropan-2-yl)-4,5,6,7-tetrahydro-[1,2,3]triazolo[1,5-a]pyridine-3-carboxamide]",70.7 nM
12,"Cc1cc2n(n1)CCC(NC(=O)c1ncn(CC3CCCCC3)n1)C(=O)N2C (stereo not shown) [Example 253, 1-(cyclohexylmethyl)-N-(2,4-dimethyl-5-oxo-5,6,7,8-tetrahydro-4H-pyrazolo[1,5-a][1,3]diazepin-6-yl)-1H-1,2,4-triazole-3-carboxamide]",171 nM
13,"CN1C(=O)C(NC(=O)c2ncn(CC3CCOCC3)n2)CCn2nc(C3CC3)cc21 (stereo not shown) [Example 254, N-(2-cyclopropyl-4-methyl-5-oxo-5,6,7,8-tetrahydro-4H-pyrazolo[1,5-a][1,3]diazepin-6-yl)-1-((tetrahydro-2H-pyran-4-yl)methyl)-1H-1,2,4-triazole-3-carboxamide]",2200 nM
14,"CN1C(=O)C(NC(=O)c2ncn(CC3CCC(F)(F)CC3)n2)CCn2nc(C3CC3)cc21 (stereo not shown) [Example 255, N-(2-cyclopropyl-4-methyl-5-oxo-5,6,7,8-tetrahydro-4H-pyrazolo[1,5-a][1,3]diazepin-6-yl)-1-((4,4-difluorocyclohexyl)methyl)-1H-1,2,4-triazole-3-carboxamide]",421 nM

# Now from value to molecule:
row,Ki,SMILES
1,210 nM,"CN1C(=O)C(NC(=O)c2ncn(CC3CCC3)n2)CCn2nc(C3CC3)cc21 (stereo not shown) [Example 256, 1-(cyclobutylmethyl)-N-(2-cyclopropyl-4-methyl-5-oxo-5,6,7,8-tetrahydro-4H-pyrazolo[1,5-a][1,3]diazepin-6-yl)-1H-1,2,4-triazole-3-carboxamide]"
2,82.9 nM,"CN1C(=O)C(NC(=O)c2ncn(Cc3ccc(F)cc3)n2)CCn2nc(C3CC3)cc21 (stereo not shown) [Example 257, N-(2-cyclopropyl-4-methyl-5-oxo-5,6,7,8-tetrahydro-4H-pyrazolo[1,5-a][1,3]diazepin-6-yl)-1-(4-fluorobenzyl)-1H-1,2,4-triazole-3-carboxamide]"
3,1600 nM,"CN1C(=O)C(NC(=O)c2ncn(CCC(F)(F)F)n2)CCn2nc(C3CC3)cc21 (stereo not shown) [Example 258, N-(2-cyclopropyl-4-methyl-5-oxo-5,6,7,8-tetrahydro-4H-pyrazolo[1,5-a][1,3]diazepin-6-yl)-1-(3,3,3-trifluoropropyl)-1H-1,2,4-triazole-3-carboxamide]"
4,789 nM,"Cc1cccc(Cn2cnc(C(=O)NC3CCn4nc(C5CC5)cc4N(C)C3=O)n2)n1 (stereo not shown) [Example 259, N-(2-cyclopropyl-4-methyl-5-oxo-5,6,7,8-tetrahydro-4H-pyrazolo[1,5-a][1,3]diazepin-6-yl)-1-((6-methylpyridin-2-yl)methyl)-1H-1,2,4-triazole-3-carboxamide]"
5,1900 nM,"CN1C(=O)C(NC(=O)c2ncn(CC3CC3)n2)CCn2nc(C3CC3)cc21 (stereo not shown) [Example 260, N-(2-cyclopropyl-4-methyl-5-oxo-5,6,7,8-tetrahydro-4H-pyrazolo[1,5-a][1,3]diazepin-6-yl)-1-(cyclopropylmethyl)-1H-1,2,4-triazole-3-carboxamide]"
6,104 nM,"CN1C(=O)C(NC(=O)c2ncn(CC3CCCC3)n2)CCn2nc(C3CC3)cc21 (stereo not shown) [Example 261, 1-(cyclopentylmethyl)-N-(2-cyclopropyl-4-methyl-5-oxo-5,6,7,8-tetrahydro-4H-pyrazolo[1,5-a][1,3]diazepin-6-yl)-1H-1,2,4-triazole-3-carboxamide]"
7,511 nM,"Cc1cc2n(n1)CC[C@H](NC(=O)c1ncn(CC3CC3(F)F)n1)C(=O)N2C (stereo partly drawn) [Example 262, 1-((2,2-difluorocyclopropyl)methyl)-N—((S)-2,4-dimethyl-5-oxo-5,6,7,8-tetrahydro-4H-pyrazolo[1,5-a][1,3]diazepin-6-yl)-1H-1,2,4-triazole-3-carboxamide]"
8,854 nM,"CC[C@@]1(C)OCc2cnc(C(=O)NC3CCn4cnc(C)c4N(C)C3=O)cc21 (stereo partly drawn) [Example 263, (1R)—N-(1,9-dimethyl-2-oxo-2,3,4,5-tetrahydro-1H-imidazo[1,5-a][1,3]diazepin-3-yl)-1-ethyl-1-methyl-1,3-dihydrofuro[3,4-c]pyridine-6-carboxamide]"
9,232 nM,"CC[C@@]1(C)OCc2cc(C(=O)NC3CCn4nc(-c5ccccc5)cc4N(C)C3=O)ncc21 (stereo partly drawn) [Example 264, (3R)-3-ethyl-3-methyl-N-(4-methyl-5-oxo-2-phenyl-5,6,7,8-tetrahydro-4H-pyrazolo[1,5-a][1,3]diazepin-6-yl)-1,3-dihydrofuro[3,4-c]pyridine-6-carboxamide]"
10,4900 nM,"CC[C@]1(C)OCc2cc(C(=O)NC3CCn4nc(-c5ccccc5)cc4N(C)C3=O)ncc21 (stereo partly drawn) [Example 265, (3S)-3-ethyl-3-methyl-N-(4-methyl-5-oxo-2-phenyl-5,6,7,8-tetrahydro-4H-pyrazolo[1,5-a][1,3]diazepin-6-yl)-1,3-dihydrofuro[3,4-c]pyridine-6-carboxamide]"
11,1300 nM,"Cc1cc2n(n1)CC[C@H](NC(=O)c1cc3c(cn1)COC3(C)CC(F)(F)F)C(=O)N2C (stereo partly drawn) [Example 266, N—((S)-2,4-dimethyl-5-oxo-5,6,7,8-tetrahydro-4H-pyrazolo[1,5-a][1,3]diazepin-6-yl)-1-m ethyl-1-(2,2,2-trifluoroethyl)-1,3-dihydrofuro[3,4-c]pyridine-6-carboxamide]"
12,37.4 nM,"CN1C(=O)[C@@H](NC(=O)c2cc3c(cn2)COC3(C)C2CC2)COc2ccccc21 (stereo partly drawn) [Example 267, 1-cyclopropyl-1-methyl-N—((S)-5-methyl-4-oxo-2,3,4,5-tetrahydrobenzo[b][1,4]oxazepin-3-yl)-1,3-dihydrofuro[3,4-c]pyridine-6-carboxamide]"
13,97.7 nM,"Cc1cc2n(n1)CCC(NC(=O)c1ncn(Cc3ccc(F)cc3)n1)C(=O)N2C (stereo not shown) [Example 268, N-(2,4-dimethyl-5-oxo-5,6,7,8-tetrahydro-4H-pyrazolo[1,5-a][1,3]diazepin-6-yl)-1-(4-fluorobenzyl)-1H-1,2,4-triazole-3-carboxamide]"
14,811 nM,"CN1C(=O)C(NC(=O)c2ncn(CC3CC(F)(F)C3)n2)CCn2nc(C3CC3)cc21 (stereo not shown) [Example 269, N-(2-cyclopropyl-4-methyl-5-oxo-5,6,7,8-tetrahydro-4H-pyrazolo[1,5-a][1,3]diazepin-6-yl)-1-((3,3-difluorocyclobutyl)methyl)-1H-1,2,4-triazole-3-carboxamide]"
